One compound from patent EP1149106B1, “4,5-AZOLO-OXINDOLES” (F. HOFFMANN-LA ROCHE AG, priority 1998, dated 2000) can be followed below.

In experiment [1] the test system is estrogen receptor negative epithelial breast carcinoma line (MDA-MB-435). Description: Cell-based antiproliferative assay (MTT), MDA-MB-435. The conditions noted are these: Homo sapiens, MDA-MB-435, 120 h, 2000 cells per well, 5 days post addition of test compound, read-out: MDA-MB435 IC50. The protocol:
The estrogen receptor negative epithelial breast carcinoma line (MDA-MB-435) was purchased from American Type Cell Culture Collection (ATCC; Rockville, MD) and was grown in the medium recommended by ATCC. For analysis of the effect of the test compounds on growth of these cells, the cells were plated at 2000 cells per well in a 96-well tissue culture plate, and were incubated overnight at 37°C with 5% CO2. The next day, the test compounds were dissolved in 100% dimethyl sulfoxide (DMSO) to yield a 10 mM stock solution. Each compound was diluted with sterile medium to 1 mM in a sufficient quantity to yield a final concentration of 120 µM. The compounds were then serially diluted in medium with 1.2% DMSO. […] The plates were returned to the incubator, and 5 days post addition of test compound, were analyzed as described below.
3-(4,5-Dimethylthiazole-2-yl)-2,5-diphenyl-2H-tetrazolium bromide (thiazolyl blue; MTT) was added to each well to yield a final concentration of 1 mg/ml. […] Absorbencies were read in a microtiter plate reader (Molecular Dynamics) at a wavelength of 570 nm with a 650 nm reference. Percent inhibition was calculated by subtracting the absorbance of the blank (no cell) wells from all wells, then subtracting the division of the average absorbance of each test duplicate by the average of the controls from 1.00. […]

Another experiment addresses T1, Cyclin E/CDK2 (Homo sapiens, UniProt P24941).
T1 construct: made in house; host or cells: insect cells
Description: CDK2 FlashPlate Assay (Rb phosphorylation, 33P-ATP). In kind it is biochemical. To be noted: recombinant human Cyclin E/CDK2, Rb substrate, 25 minutes at room temperature. The protocol:
To determine inhibition of CDK2 activity, purified recombinant retinoblastoma (Rb) protein was coated on 96 well FlashPlates (New England Nuclear, Boston, MA). Rb is a natural substrate for phosphorylation by CDK2 (Herwig and Strauss Eurr. J. Biochem., Vol. 246 (1997) pp. 581-601 and references therein). Recombinant active human Cyclin E/CDK2 complexes were partially purified from extracts of insect cells. The active Cyclin E/CDK2 was added to the Rb-coated FlashPlates along with ^33P-ATP and dilutions of test compounds. Plates were incubated for 25 minutes at room temperature with shaking, then washed and counted in the Topcount scintillation counter (Packard Instrument Co., Downers Grove, IL). Dilutions of test compounds were tested in duplicate in each assay. The percent inhibition of Rb phosphorylation, which is a measure of the inhibition of CDK2 activity, was determined according to the following formula: [formula] where "test compound" refers to the average counts per minute of the test duplicates, "nonspecific" refers to the average counts per minute when no Cyclin E/CDK2 was added, and "total" refers to the average counts per minute when no compound was added.

In experiment [2] the test system is colon carcinoma line SW480. Description: Cell-based antiproliferative assay (MTT), SW480. To be noted: Homo sapiens, SW480, 96 h, 1000 cells per well, 4 days post addition of test compound.

What is called IC50 is the concentration that inhibits the measured activity by half.

Where only a bound is given, the exact number is not on record here.

As to `COc1cc[nH]c1/C=C1\C(=O)Nc2ccc3[nH]c(C)nc3c21` [P, (Z)-8-[(3-Methoxy-1H-pyrrol-2-yl)methylene]-2-methyl-3,6,7,8-tetrahydro-pyrrolo-[3,2-e]benzimidazol-7-one], the IC50 was < 3.5 µM in experiment [1], < 3.5 µM on Cyclin E/CDK2 and < 1 µM in experiment [2].
